Columns and labels:
[1] = target: T1, full length AKT1 (Homo sapiens, UniProt P31749); assay: AKT enzyme assay (substrate phosphorylation, SPA), full length AKT1; assay type: biochemical; details: in at least one experimental run; pIC50 = -log(IC50), IC50 in molar units
T1 construct: Full-length human AKT1 gene was amplified by PCR; His tag (from vector pFastbacHTb; N-terminal position is own knowledge of the vector) (N); made in house; host or cells: baculovirus; Sf9 / T. ni insect cells

[2] = target: T2, full length AKT3 (Homo sapiens, UniProt Q9Y243); assay: AKT enzyme assay (substrate phosphorylation, SPA), full length AKT3; assay type: biochemical; details: in at least one experimental run; pIC50 = -log(IC50), IC50 in molar units
T2 construct: Full length AKT2 and full length AKT3 were cloned, expressed and purified in a similar fashion; His tag (inferred: made in a similar fashion to AKT1 in pFastbacHTb with nickel purification) (N); made in house; host or cells: baculovirus; insect cells (by analogy with AKT1)
T2 sequence (Q9Y243 whole entry): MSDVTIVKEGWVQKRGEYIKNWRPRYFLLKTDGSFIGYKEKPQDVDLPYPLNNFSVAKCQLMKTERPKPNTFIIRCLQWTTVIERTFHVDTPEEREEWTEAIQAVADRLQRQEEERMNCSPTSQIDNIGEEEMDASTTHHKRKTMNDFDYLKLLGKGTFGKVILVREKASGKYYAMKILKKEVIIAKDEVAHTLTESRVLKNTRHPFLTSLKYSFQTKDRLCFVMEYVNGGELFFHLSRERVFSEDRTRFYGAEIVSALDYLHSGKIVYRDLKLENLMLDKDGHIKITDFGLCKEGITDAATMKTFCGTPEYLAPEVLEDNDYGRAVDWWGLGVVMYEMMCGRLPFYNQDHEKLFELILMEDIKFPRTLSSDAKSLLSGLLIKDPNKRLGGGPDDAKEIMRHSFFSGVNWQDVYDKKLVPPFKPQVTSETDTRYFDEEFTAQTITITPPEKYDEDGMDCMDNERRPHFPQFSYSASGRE
Protocol: Compounds of the present invention are tested for AKT 1, 2, and 3 protein serine kinase inhibitory activity in substrate phosphorylation assays. This assay examines the ability of small molecule organic compounds to inhibit the serine phosphorylation of a peptide substrate. […] AKT 1, 2 and 3 are also commercially available from Upstate USA, Inc. The method measures the ability of the isolated enzyme to catalyze the transfer of the gamma-phosphate from ATP onto the serine residue of a biotinylated synthetic peptide SEQ. […] Substrate phosphorylation is detected by the following procedure:
ATP/well, 1 mM CHAPS, 2 mM DTT, and 1 ul of test compound in 100% DMSO. The reaction is stopped by the addition of 50 ul SPA bead mix (Dulbecco's PBS without Mg^2+ and Ca^2+, 0.1% Triton X-100, 5 mM EDTA, 50 uM ATP, 2.5 mg/ml Streptavidin-coated SPA beads.) The plate is sealed, the beads are allowed to settle overnight, and then the plate is counted in a Packard Topcount Microplate Scintillation Counter (Packard Instrument Co., Meriden, Conn.).
The data for dose responses are plotted as % Control calculated with the data reduction formula 100*(U1−C2)/(C1−C2) versus concentration of compound where U is the unknown value, C1 is the average control value obtained for DMSO, and C2 is the average control value obtained for 0.1M EDTA. […]

T1 sequence (P31749 whole entry): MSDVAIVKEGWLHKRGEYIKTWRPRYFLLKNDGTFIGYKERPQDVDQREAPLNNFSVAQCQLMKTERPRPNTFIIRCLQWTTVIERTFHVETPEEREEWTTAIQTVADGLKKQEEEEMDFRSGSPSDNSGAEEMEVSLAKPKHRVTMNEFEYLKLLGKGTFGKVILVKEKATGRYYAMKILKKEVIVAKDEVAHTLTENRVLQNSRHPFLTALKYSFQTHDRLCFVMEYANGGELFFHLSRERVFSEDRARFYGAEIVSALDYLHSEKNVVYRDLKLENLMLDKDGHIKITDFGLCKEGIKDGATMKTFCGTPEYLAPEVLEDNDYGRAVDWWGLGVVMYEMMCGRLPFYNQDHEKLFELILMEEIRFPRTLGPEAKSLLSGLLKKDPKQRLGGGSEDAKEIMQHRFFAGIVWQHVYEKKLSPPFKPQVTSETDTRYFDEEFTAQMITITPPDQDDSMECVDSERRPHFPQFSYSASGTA

Row | pIC50 value against full length AKT1 [1] | pIC50 value against full length AKT3 [2] | SMILES
1 | 9.0 | 8.4 | Cn1ncc(Cl)c1-c1cc(C(=O)N[C@H](CN)Cc2cccc(F)c2)oc1Cl [Example 137, N-{(1S)-2-amino-1-[(3-fluorophenyl)methyl]ethyl}-5-chloro-4-(4-chloro-1-methyl-1H-pyrazol-5-yl)-2-furancarboxamide]
2 | 8.8 | 7.6 | Cc1sc(C(=O)N[C@H](CN)Cc2cccc(F)c2)cc1-c1c(Cl)cnn1C [Example 161, N-{(1S)-2-amino-1-[(3-fluorophenyl)methyl]ethyl}-4-(4-chloro-1-methyl-1H-pyrazol-5-yl)-5-methyl-2-thiophenecarboxamide]
